Experiments:
[1] = system: PARP1 chromatin association in eHAP SMUG1−/− cells; assay: PARP trapping assay (chromatin fractionation), eHAP SMUG1−/− cells; format: cell-based, human; details: MMS 0.01% then olaparib 10 μM 4 h
Experimental: Briefly, 500.000 cells were seeded onto six-well plates, and treated with 350 nM hmdU or 0.01% MMS for 24 hours at which point cells were either left untreated or treated with 10 μM olaparib for 4 h. Cells were fractionated with the Subcellular Protein Fractionation kit for Cultured Cells (ThermoFisher #78840) according to the manufacturer's instructions. Soluble and chromatin fractions were analysed by immunoblotting for PARP1 (Cell Signaling #9542, rabbit) and yH2AX (Millipore, JBW301) antibodies. Incubation with primary antibody was followed by incubation with a horseradish peroxidase-conjugated secondary antibody and chemiluminescent detection of proteins (Amersham Pharmacia, Cardiff, UK).

[2] = system: eHAP MUS81−/− cells; assay: Cell viability assay (CellTiter-Glo), eHAP MUS81−/− cells; format: cell-based, human; details: single agent
Experimental: (§1) For analysis of cell viability following exposure to olaparib (Selleckchem), deoxyribonucleosides and DNPH1i (N6-benzyladenosine, Carbosynth), cells were seeded in 96-well plates at a density of 100-500 cells per well. Twenty-four hours post-seeding, drug treatments were initiated, and cells were continuously exposed until termination of the experiment. Cell viability was measured using CellTiter-Glo (Promega). The surviving fractions were measured, and drug sensitivity curves were plotted using GraphPad Prism. The following nucleosides were purchased from commercial sources: dU (2′-deoxyuridine), hdU (5-hydroxy-2′-deoxyuridine), hmdU (5-hydroxymethyl-2′-deoxyuridine), mdC (5-methyl-2′-deoxycytidine), hmdC (5-hydroxymethyl-2′-deoxycytidine), cadC (5-carboxy-2-deoxycytidine), fodC (5-formyl-2-deoxycytidine), dl (2′-deoxyinosine), dX (2′-deoxyxanthosine), 8odG (8-oxo-2′-deoxyguanosine), hmU (5 hydroxymethyluridine), hmC (5-hydroxymethyl-cytidine). fodU (5-formyl-2′-deoxyuridine) was synthesized as previously described (Guo et al Org. Biomol. Chem. 11, 1610-1613 (2013).

[3] = system: eHAP MUS81−/−DNPH1−/− cells; assay: Cell viability assay (CellTiter-Glo), eHAP MUS81−/−DNPH1−/− cells; format: cell-based, human; details: nucleoside 200 nM, 6 days, vs MUS81 k/o
Experimental: as §1

[4] = system: SUM149 BRCA1mut (parental) cells; assay: Cell viability assay, SUM149 BRCA1mut (parental) cells; format: cell-based, human; details: 8 days
Experimental: as §1

[5] = system: SUM149 WT (revertant) cells; assay: Cell viability assay, SUM149 WT (revertant) cells; format: cell-based, human; details: hmdU with DNPH1i 0.5 μM or olaparib, 8 days
Experimental: as §1

[6] = system: DLD1 BRCA2−/− cells; assay: Cell viability assay, DLD1 BRCA2−/− cells; format: cell-based; details: olaparib 10 nM or hmdU 2 μM, 10 days
Experimental: as §1

[7] = system: BRCA2/DNPH1 double knock-out cell lines (DLD1); assay: Cell viability assay, DLD1 BRCA2/DNPH1 double knock-out cells; format: cell-based; details: absence of a PARP inhibitor; two independent double knock-out lines
Experimental: as §1

[8] = system: DLD1 WT, BRCA2 and DNPH1 single knock-out cell lines; assay: Cell viability assay, DLD1 WT and single knock-out cells; format: cell-based; details: highest dose tested
Experimental: as §1

[9] = system: SUM149 BRCA1mut/53BP1−/− cells; assay: Cell viability assay, SUM149 BRCA1mut/53BP1−/− cells; format: cell-based, human; details: PARPi-resistant cells; hmdU 2 μM + olaparib; ratio of EC50 values
[10] = system: SUM149 BRCA1mut/PARP1−/− cells; assay: Cell viability assay, SUM149 BRCA1mut/PARP1−/− cells; format: cell-based, human; details: PARPi-resistant cells; hmdU 2 μM + olaparib; ratio of EC50 values
[11] = system: DCTD k/o cell lines; assay: Cell viability, DCTD k/o cell lines; format: cell-based
Experimental: as §1

[12] = system: eHAP WT and DNPH1 k/o cells; assay: Nucleoside composition of genomic DNA by LC-MS; format: cell-based, human; details: cells treated with exogenous hmdU; DNPH1 k/o vs WT
Experimental: Cells (5×10^7) were collected and DNA extracted using Gentra Puregene Cell Kit (Qiagen) supplemented with RNAse (Qiagen) and 100 mM tetrahydrouridine (Merck). DNA was digested to mononucleosides by modification of a published protocol (41). Briefly, reactions were carried out in […] buffer containing […] DNA, 50 mM Tris pH 9.0, 20 mM NaCl, 5 mM MgCl2, 1 kU Benzonase, 1 U phosphodiesterase I and 10 U FastAP alkaline phosphatase for 48 hrs at 37° C. The samples were then precipitated with chloroform and labelled standards of deoxyadenosine (dA), deoxycytidine (dC), deoxyguanosine (dG) and deoxythymidine (dT) were spiked for normalization of the signal response from modified deoxynucleosides. Polar phases were analyzed by LC-MS/MS using a using a reverse phase column (100×2.1 mm, 3 μm, Fortis C18, Fortis Technologies) on a Dionex UltiMate LC system coupled to a TSQ Quantiva™ Triple Quadrupole (Thermo Scientific) mass spectrometer with a HESI 11 (heated electrospray ionization) source. The mobile phases consisted of water containing 0.1% acetic acid (mobile phase A) and acetonitrile (mobile phase B). A gradient of 12 min 0-12% B and 1 min 12-60% B was used for the separation of all the modified nucleosides. […]

| SMILES | difference in PARP trapping or DNA damage signaling between WT and SMUG1-deficient cells [1] | effect on viability, agent alone [2] | sensitivity of MUS81/DNPH1 k/o cells to nucleoside treatment (cell viability) [3] | synthetic lethality of hmdU with DNPH1 inhibition ([4]; DNPH1i 0.5 μM) | expansion of the therapeutic window of olaparib by addition of hmdU ([4]; hmdU 2 μM + olaparib vs olaparib alone, ratio of EC50 values revertant vs BRCA1mut) [fold] | effect on viability, agent alone ([4]; olaparib 250 nM or hmdU 2 μM) | effect of treatment on isogenic WT cells [5] | effect on viability, agent alone [6] | cells killed by hmdU [7] | sensitivity to hmdU [8] | expansion of the therapeutic window of olaparib by hmdU [9] [fold] | expansion of the therapeutic window of olaparib by hmdU [10] [fold] | resistance of DCTD k/o cells to nucleoside treatment [11] | increase in genomic hmdU in DNPH1 k/o cells after hmdU treatment [12] [fold] |
| --- | --- | --- | --- | --- | --- | --- | --- | --- | --- | --- | --- | --- | --- | --- |
| COS(C)(=O)=O [MMS, methyl methanesulfonate] | did not observe any difference |  |  |  |  |  |  |  |  |  |  |  |  |  |
| O=c1[nH]c(=O)n([C@H]2C[C@H](O)[C@@H](CO)O2)cc1CO [hmdU, 5-hydroxymethyl-2′-deoxyuridine] |  | no effect on viability | hypersensitive | to the same extent as Olaparib alone | 4 | limited effect on viability | unaffected | limited effect on viability | over 95% | resistant to the highest dose tested | 3 | 3 | not | 3 |
